Source: ChEMBL document CHEMBL1201862, “PubChem BioAssay data set” (2004)
The source made the active and inactive calls.

What was measured:
[1] = molecular target: T1, Apoptotic protease-activating factor 1 (Homo sapiens, UniProt O14727); assay type: functional
T1 sequence (O14727 whole entry): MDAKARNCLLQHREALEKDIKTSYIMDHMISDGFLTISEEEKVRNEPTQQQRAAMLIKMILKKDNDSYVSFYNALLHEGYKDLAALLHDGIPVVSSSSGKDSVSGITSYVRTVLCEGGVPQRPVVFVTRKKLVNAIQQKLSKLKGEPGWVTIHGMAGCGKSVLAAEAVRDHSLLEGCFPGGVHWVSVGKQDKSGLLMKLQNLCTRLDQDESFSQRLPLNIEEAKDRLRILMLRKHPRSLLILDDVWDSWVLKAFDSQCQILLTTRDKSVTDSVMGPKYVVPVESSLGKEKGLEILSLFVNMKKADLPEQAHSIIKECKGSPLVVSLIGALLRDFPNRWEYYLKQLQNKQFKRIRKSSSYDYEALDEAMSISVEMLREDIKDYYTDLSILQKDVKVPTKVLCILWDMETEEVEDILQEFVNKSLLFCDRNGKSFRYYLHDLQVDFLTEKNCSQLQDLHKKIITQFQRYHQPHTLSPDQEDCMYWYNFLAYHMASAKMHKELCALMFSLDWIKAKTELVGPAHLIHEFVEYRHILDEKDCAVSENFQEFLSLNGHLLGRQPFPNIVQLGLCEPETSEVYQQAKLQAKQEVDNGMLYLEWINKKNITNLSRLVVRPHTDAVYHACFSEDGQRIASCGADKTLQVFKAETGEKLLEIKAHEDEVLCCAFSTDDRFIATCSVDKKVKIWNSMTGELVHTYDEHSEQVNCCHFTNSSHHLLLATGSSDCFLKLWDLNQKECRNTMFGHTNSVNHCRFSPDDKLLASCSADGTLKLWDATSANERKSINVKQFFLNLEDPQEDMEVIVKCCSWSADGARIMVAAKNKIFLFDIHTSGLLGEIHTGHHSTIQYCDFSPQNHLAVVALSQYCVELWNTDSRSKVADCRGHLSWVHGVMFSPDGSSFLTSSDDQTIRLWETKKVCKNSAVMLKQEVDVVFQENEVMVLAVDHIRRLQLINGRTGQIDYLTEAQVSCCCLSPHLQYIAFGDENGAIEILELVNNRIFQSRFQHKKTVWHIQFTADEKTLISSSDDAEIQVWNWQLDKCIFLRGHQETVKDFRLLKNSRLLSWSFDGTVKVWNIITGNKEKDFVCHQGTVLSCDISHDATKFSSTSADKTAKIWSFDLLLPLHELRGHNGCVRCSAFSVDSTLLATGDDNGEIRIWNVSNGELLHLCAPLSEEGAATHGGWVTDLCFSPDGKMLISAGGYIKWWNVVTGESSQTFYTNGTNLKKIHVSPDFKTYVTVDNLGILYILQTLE

Escherichia coli = assay: microbe, parasite or virus in culture
HEK293 = assay: EBV LMP1 TES2 canonical NF-kB signalling blockers – cell-based, HEK293, luciferase, cherry-pick, dose response (AID 588343); assay type: functional; details: Homo sapiens
[2] = molecular target: Dual specificity tyrosine-phosphorylation-regulated kinase 1A (Rattus norvegicus, UniProt Q63470); assay type: biochemical, Homo sapiens
Vero = assay: viability of Vero cells under compound – cytotoxicity control for flavivirus capping enzyme inhibitors (AID 588742); assay type: functional; details: Chlorocebus sabaeus
[3] = NIH-3T3 fibroblast cytotoxicity, dose response, cytotoxicity control, cell-based, fluorescence, Alamar Blue, secondary assay (AID 2327); assay type: functional;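 also: NIH-3T3 mouse fibroblasts cultured with fluconazole at 8 µg/mL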
[4] = fluconazole-exposed Candida albicans growth modulators – fluorescence, retest, confirmation (AID 2467); assay type: functional, cell-based
Caspase-3 = molecular target: T2, Caspase-3 (Homo sapiens, UniProt P42574); assay type: functional;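 also: Dose-response selectivity test against caspase-3 for candidate inhibitors of sentrin-specific proteases (SENPs)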
T2 sequence (P42574 whole entry): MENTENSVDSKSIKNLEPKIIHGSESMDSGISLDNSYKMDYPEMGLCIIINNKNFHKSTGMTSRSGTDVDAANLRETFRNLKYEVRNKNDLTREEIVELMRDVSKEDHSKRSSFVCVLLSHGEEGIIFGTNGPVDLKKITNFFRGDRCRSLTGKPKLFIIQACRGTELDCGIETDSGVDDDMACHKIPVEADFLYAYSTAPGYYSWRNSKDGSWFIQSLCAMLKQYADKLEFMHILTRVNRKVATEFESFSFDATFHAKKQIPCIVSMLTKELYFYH

[5] = molecular target: T3, Sentrin-specific protease 7 (Homo sapiens, UniProt Q9BQF6); assay type: functional;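 also: Luminescence-based dose-response confirmation of ultra-high-throughput screening hits, measuring inhibition of SENP7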
T3 sequence (Q9BQF6 whole entry): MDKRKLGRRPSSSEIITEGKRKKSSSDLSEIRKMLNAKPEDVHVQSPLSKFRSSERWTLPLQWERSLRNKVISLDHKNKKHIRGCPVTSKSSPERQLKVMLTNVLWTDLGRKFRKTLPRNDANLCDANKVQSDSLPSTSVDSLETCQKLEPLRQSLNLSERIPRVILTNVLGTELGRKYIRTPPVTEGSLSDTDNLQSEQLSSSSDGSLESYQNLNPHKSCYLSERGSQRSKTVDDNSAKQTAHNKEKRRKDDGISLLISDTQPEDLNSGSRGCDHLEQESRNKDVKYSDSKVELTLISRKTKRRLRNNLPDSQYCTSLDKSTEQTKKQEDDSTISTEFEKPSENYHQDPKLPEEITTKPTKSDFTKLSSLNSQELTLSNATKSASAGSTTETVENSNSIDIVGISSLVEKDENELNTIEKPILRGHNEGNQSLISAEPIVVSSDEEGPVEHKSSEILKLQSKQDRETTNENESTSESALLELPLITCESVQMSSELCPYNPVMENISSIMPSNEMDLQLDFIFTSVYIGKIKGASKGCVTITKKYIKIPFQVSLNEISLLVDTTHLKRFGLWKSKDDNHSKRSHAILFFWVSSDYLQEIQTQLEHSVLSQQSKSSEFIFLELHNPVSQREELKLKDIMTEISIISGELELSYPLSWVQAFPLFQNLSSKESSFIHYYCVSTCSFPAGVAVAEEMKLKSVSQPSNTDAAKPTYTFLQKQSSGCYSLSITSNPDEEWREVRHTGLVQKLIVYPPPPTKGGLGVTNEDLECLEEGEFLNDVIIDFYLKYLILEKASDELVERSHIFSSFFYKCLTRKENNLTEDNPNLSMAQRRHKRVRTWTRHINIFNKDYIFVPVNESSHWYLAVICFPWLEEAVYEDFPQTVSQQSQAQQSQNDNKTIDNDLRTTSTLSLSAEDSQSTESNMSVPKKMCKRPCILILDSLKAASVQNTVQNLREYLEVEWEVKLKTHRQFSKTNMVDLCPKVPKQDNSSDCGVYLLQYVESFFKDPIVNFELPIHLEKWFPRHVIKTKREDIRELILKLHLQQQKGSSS

[6] = molecular target: T4, Sentrin-specific protease 6 (Homo sapiens, UniProt Q9GZR1); assay type: functional;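 also: Luminescence-based dose-response confirmatory assay of SENP6 inhibition, following up an ultra-high-throughput screen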
T4 sequence (Q9GZR1 whole entry): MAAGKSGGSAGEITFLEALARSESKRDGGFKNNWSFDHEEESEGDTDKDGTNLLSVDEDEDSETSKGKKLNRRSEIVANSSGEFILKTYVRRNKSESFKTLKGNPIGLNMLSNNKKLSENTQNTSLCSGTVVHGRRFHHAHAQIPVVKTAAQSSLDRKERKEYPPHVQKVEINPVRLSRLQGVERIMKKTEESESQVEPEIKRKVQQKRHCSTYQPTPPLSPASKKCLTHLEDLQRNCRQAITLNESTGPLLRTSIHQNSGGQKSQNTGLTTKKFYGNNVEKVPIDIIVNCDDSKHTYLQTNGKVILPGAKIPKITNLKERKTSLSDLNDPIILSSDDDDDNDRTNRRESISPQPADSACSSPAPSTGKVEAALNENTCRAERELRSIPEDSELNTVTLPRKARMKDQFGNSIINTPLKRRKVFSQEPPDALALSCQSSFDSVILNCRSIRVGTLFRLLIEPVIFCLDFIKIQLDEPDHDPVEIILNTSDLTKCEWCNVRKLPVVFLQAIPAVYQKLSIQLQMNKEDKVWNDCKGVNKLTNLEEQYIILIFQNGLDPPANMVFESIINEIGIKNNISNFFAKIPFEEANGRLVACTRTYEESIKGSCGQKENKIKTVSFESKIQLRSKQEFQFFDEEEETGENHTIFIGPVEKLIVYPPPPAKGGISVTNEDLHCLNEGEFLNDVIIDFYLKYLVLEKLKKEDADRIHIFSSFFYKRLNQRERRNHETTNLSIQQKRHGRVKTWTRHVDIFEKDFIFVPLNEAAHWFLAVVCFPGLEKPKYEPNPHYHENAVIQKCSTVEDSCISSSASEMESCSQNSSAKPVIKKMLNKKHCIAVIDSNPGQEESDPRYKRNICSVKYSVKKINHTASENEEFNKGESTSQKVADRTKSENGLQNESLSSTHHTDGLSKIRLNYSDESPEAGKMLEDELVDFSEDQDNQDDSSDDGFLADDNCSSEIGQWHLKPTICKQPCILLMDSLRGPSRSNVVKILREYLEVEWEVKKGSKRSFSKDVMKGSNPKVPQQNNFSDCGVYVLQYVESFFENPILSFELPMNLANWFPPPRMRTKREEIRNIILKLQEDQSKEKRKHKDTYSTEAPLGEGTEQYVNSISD

[7] = molecular target: T5, Sentrin-specific protease 8 (Homo sapiens, UniProt Q96LD8); assay type: functional;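 also: luminescence read-out of SENP8 inhibition, dose-response confirmation following an ultra-high-throughput screen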
T5 sequence (Q96LD8 whole entry): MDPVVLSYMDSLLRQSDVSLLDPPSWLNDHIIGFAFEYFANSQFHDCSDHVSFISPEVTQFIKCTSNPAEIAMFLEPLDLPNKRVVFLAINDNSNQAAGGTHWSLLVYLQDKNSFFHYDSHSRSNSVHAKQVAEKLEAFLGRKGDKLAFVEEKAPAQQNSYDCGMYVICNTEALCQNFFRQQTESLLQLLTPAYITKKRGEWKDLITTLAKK

Leucine aminopeptidase = molecular target: T6, Leucine aminopeptidase (Plasmodium falciparum 3D7, UniProt Q8IL11); assay: P. falciparum M17LAP inhibitors, primary screen, biochemical, fluorogenic H-Leu-NHMec substrate, 1536-well (AID 1619); assay type: functional
T6 sequence (Q8IL11 whole entry): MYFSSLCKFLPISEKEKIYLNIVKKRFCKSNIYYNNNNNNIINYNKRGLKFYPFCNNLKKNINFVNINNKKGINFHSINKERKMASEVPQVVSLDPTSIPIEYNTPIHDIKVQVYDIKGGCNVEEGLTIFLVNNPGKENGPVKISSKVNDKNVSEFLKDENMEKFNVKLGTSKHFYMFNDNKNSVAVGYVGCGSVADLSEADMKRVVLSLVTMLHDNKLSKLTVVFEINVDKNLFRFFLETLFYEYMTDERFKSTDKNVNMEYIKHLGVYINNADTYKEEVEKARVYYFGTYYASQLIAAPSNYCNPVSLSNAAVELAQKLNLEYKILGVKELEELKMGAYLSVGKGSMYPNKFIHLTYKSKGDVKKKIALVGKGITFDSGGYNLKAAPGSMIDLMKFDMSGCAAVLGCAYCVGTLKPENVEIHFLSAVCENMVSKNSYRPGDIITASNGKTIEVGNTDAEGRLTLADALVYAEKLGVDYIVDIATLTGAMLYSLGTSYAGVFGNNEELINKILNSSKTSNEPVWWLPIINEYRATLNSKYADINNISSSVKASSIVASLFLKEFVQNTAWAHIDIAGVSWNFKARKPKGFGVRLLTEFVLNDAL

[8] = molecular target: T7, RNA-binding protein pos-1 (Caenorhabditis elegans, UniProt G5EF15); assay: disruptors of C. elegans POS-1 RNA interaction – biochemical, fluorescence polarization, dose response (AID 1964);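 also: purified POS-1 fused to maltose binding protein made in E. coli; potency of compounds blocking POS-1 binding to fluorescent RNA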
T7 sequence (G5EF15 whole entry): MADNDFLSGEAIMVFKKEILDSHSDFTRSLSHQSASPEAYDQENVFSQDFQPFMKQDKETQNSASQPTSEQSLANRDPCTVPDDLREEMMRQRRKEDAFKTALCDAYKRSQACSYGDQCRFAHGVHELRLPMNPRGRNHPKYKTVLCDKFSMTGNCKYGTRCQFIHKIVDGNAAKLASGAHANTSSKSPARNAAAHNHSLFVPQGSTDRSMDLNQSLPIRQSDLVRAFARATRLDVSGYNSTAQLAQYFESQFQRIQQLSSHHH

[9] = molecular target: T8, Zinc finger protein mex-5 (Caenorhabditis elegans, UniProt Q9XUB2); assay: potency of MEX-5 RNA-binding blockers – biochemical, C. elegans, fluorescence polarization, dose response (AID 1960)
T8 sequence (Q9XUB2 whole entry): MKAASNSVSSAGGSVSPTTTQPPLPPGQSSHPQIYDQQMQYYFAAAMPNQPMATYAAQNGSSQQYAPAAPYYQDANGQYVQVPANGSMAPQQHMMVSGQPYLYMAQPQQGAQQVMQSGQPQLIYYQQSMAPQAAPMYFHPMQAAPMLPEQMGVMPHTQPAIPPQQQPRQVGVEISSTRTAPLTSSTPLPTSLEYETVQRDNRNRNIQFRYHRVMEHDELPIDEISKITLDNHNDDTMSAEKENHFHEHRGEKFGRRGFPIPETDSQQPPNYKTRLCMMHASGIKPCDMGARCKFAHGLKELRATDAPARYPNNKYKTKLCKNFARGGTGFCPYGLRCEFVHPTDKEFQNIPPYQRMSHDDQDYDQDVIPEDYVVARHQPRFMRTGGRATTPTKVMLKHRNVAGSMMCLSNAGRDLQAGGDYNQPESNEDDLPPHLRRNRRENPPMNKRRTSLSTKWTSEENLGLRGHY

Clc1ccccc1-c1nn2c(-c3ccncc3)nnc2s1
IC50 [1]: 19.1 µM (active) | AC50 (Escherichia coli): 23.3 µM (active)

O=C(O)/C=C/c1ccc2ccccc2n1
AC50 (HEK293): 47.7 µM (active)

Cc1nc(COc2ccccc2Cl)sc1-c1ccnc(N)n1
AC50 [2]: 0.235 µM (active)

COc1cc(/C=C2\SC(=O)NC2=O)ccc1Oc1ccc([N+](=O)[O-])cc1[N+](=O)[O-]
CC50 (Vero): > 40 µM (active) | AC50 [2]: 7.72 µM (active)

CCCCCc1ccc(-c2ccc(/C=C/C(=O)O)cc2)nc1
EC50 [3]: > 160 µM (inconclusive) | EC50 [4]: 2.03 µM (active) | IC50 (Caspase-3): 35.4 µM (active) | IC50 [5]: 6.37 µM (active) | IC50 [6]: 11.2 µM (active) | IC50 [7]: 8.8 µM (active) | AC50 (HEK293): 20.8 µM (active)

CCn1c2ccccc2c2cc(/C=N/n3c(C)nnc3C)ccc21
AC50 (HEK293): 34.2 µM (active)

COc1ccc(Nc2ncnc3nc[nH]c23)cc1OC
IC50 (Leucine aminopeptidase): 48.5 µM (active) | EC50 [8]: > 300 µM (not active) | EC50 [9]: 23.9 µM (active) | AC50 [2]: 12 µM (active)
